≈ marks a conversion by molar mass, not a printed value.
Key:
Staphylococcus aureus [1] = test: Antimicrobial activity against Staphylococcus aureus ATCC 25923 after 24 hrs by microbroth dilution method; assay type: functional; conditions: ATCC 25923, 24 h
Aspergillus flavus = test: Antimicrobial activity against Aspergillus flavus ATCC 204304 after 24 hrs by microbroth dilution method; assay type: functional; conditions: ATCC 204304, 24 h
Bacillus spizizenii = test: Antimicrobial activity against Bacillus subtilis ATCC 6633 after 24 hrs by microbroth dilution method; assay type: functional; conditions: ATCC 6633, 24 h
Saccharomyces cerevisiae = test: Antimicrobial activity against Saccharomyces cerevisiae after 24 hrs by microbroth dilution method; assay type: functional
Escherichia coli [2] = test: Antimicrobial activity against Escherichia coli JM109 after 24 hrs by microbroth dilution method; assay type: functional; conditions: JM109, 24 h
Candida albicans = test: Antimicrobial activity against Candida albicans ATCC 10231 after 24 hrs by microbroth dilution method; assay type: functional; conditions: ATCC 10231, 24 h
[3] = Antimicrobial activity against Bacillus proteus ATCC 13315 after 24 hrs by microbroth dilution method; assay type: functional; conditions: ATCC 13315, 24 h
Staphylococcus aureus [4] = test: Antimicrobial activity against methicillin-resistant Staphylococcus aureus N315 after 24 hrs by microbroth dilution method; assay type: functional; conditions: N315, 24 h
Candida = test: Antimicrobial activity against Candida mycoderma ATCC 9888 after 24 hrs by microbroth dilution method; assay type: functional; conditions: ATCC 9888, 24 h
Salmonella typhi = test: Antimicrobial activity against Bacillus typhi after 24 hrs by microbroth dilution method; assay type: functional, Salmonella enterica subsp. enterica serovar Typhi; conditions: Salmonella enterica
Escherichia coli [5] = test: Antimicrobial activity against Escherichia coli DH52 after 24 hrs by microbroth dilution method; assay type: functional; conditions: DH52, 24 h
Micrococcus luteus = test: Antimicrobial activity against Micrococcus luteus ATCC 4698 after 24 hrs by microbroth dilution method; assay type: functional; conditions: ATCC 4698, 24 h

Row | Structure (SMILES) | MIC (Staphylococcus aureus [1]) | MIC (Aspergillus flavus) | MIC (Bacillus spizizenii) | MIC (Saccharomyces cerevisiae) | MIC (Escherichia coli [2]) | MIC (Candida albicans) | MIC [3] | MIC (Staphylococcus aureus [4]) | MIC (Candida) | MIC (Salmonella typhi) | MIC (Escherichia coli [5]) | MIC (Micrococcus luteus)
1 | O=c1c(F)cn(Cc2nc3ccccc3n2Cc2ccc(F)cc2)c(=O)n1Cc1ccc(F)cc1 | > 512 µg/mL | 512 µg/mL (≈ 1070 µM) | > 512 µg/mL | > 512 µg/mL | > 512 µg/mL | > 512 µg/mL | > 512 µg/mL | 512 µg/mL (≈ 1070 µM) | > 512 µg/mL | 512 µg/mL (≈ 1070 µM) | > 512 µg/mL | > 512 µg/mL
2 | O=c1c(F)cn(Cc2nc3ccccc3n2Cc2ccc(Cl)cc2)c(=O)n1Cc1ccc(Cl)cc1 | > 512 µg/mL | > 512 µg/mL | > 512 µg/mL | > 512 µg/mL | > 512 µg/mL | 4 µg/mL (≈ 7.85 µM) | > 512 µg/mL | > 512 µg/mL | > 512 µg/mL | 512 µg/mL (≈ 1010 µM) | > 512 µg/mL | > 512 µg/mL
3 | CCn1cc(C(=O)O)c(=O)c2cc(F)c(N3CCNCC3)cc21 [NORFLOXACIN] | 2 µg/mL (≈ 6.26 µM) | – | 4 µg/mL (≈ 12.5 µM) | – | 1 µg/mL (≈ 3.13 µM) | – | 8 µg/mL (≈ 25.1 µM) | 8 µg/mL (≈ 25.1 µM) | – | 4 µg/mL (≈ 12.5 µM) | 1 µg/mL (≈ 3.13 µM) | 2 µg/mL (≈ 6.26 µM)
4 | O=c1c(F)cn(Cc2nc3ccccc3n2Cc2cccc(Cl)c2)c(=O)n1Cc1cccc(Cl)c1 | 512 µg/mL (≈ 1010 µM) | 64 µg/mL (≈ 126 µM) | 64 µg/mL (≈ 126 µM) | 64 µg/mL (≈ 126 µM) | 128 µg/mL (≈ 251 µM) | 64 µg/mL (≈ 126 µM) | 64 µg/mL (≈ 126 µM) | 128 µg/mL (≈ 251 µM) | 64 µg/mL (≈ 126 µM) | 64 µg/mL (≈ 126 µM) | 16 µg/mL (≈ 31.4 µM) | 128 µg/mL (≈ 251 µM)
5 | CCCCCCCCn1c(=O)c(F)cn(Cc2nc3ccccc3n2CCCCCCCC)c1=O | > 512 µg/mL | 512 µg/mL (≈ 1060 µM) | 512 µg/mL (≈ 1060 µM) | > 512 µg/mL | 512 µg/mL (≈ 1060 µM) | 64 µg/mL (≈ 132 µM) | > 512 µg/mL | > 512 µg/mL | 512 µg/mL (≈ 1060 µM) | 512 µg/mL (≈ 1060 µM) | 512 µg/mL (≈ 1060 µM) | 512 µg/mL (≈ 1060 µM)
6 | CCCCCn1c(=O)c(F)cn(Cc2nc3ccccc3n2CCCCC)c1=O | 16 µg/mL (≈ 40 µM) | > 512 µg/mL | 512 µg/mL (≈ 1280 µM) | 8 µg/mL (≈ 20 µM) | 16 µg/mL (≈ 40 µM) | > 512 µg/mL | 8 µg/mL (≈ 20 µM) | 16 µg/mL (≈ 40 µM) | 8 µg/mL (≈ 20 µM) | 512 µg/mL (≈ 1280 µM) | 512 µg/mL (≈ 1280 µM) | 32 µg/mL (≈ 79.9 µM)
7 | Cc1ccc(Cn2c(=O)c(F)cn(Cc3nc4ccccc4n3Cc3ccc(C)cc3)c2=O)cc1 | > 512 µg/mL | > 512 µg/mL | > 512 µg/mL | > 512 µg/mL | > 512 µg/mL | > 512 µg/mL | > 512 µg/mL | > 512 µg/mL | > 512 µg/mL | 512 µg/mL (≈ 1090 µM) | 128 µg/mL (≈ 273 µM) | > 512 µg/mL
8 | O=c1c(F)cn(Cc2nc3ccccc3n2Cc2ccccc2)c(=O)n1Cc1ccccc1 | > 512 µg/mL | 64 µg/mL (≈ 145 µM) | 64 µg/mL (≈ 145 µM) | > 512 µg/mL | > 512 µg/mL | 128 µg/mL (≈ 291 µM) | > 512 µg/mL | > 512 µg/mL | 128 µg/mL (≈ 291 µM) | 128 µg/mL (≈ 291 µM) | > 512 µg/mL | 128 µg/mL (≈ 291 µM)
9 | CCCn1c(=O)c(F)cn(Cc2nc3ccccc3n2CCC)c1=O | 32 µg/mL (≈ 92.9 µM) | 64 µg/mL (≈ 186 µM) | 64 µg/mL (≈ 186 µM) | 128 µg/mL (≈ 372 µM) | 16 µg/mL (≈ 46.5 µM) | 64 µg/mL (≈ 186 µM) | 128 µg/mL (≈ 372 µM) | 64 µg/mL (≈ 186 µM) | 32 µg/mL (≈ 92.9 µM) | 64 µg/mL (≈ 186 µM) | 32 µg/mL (≈ 92.9 µM) | 32 µg/mL (≈ 92.9 µM)
10 | O=c1c(F)cn(Cc2nc3ccccc3n2Cc2ccc([N+](=O)[O-])cc2)c(=O)n1Cc1ccc([N+](=O)[O-])cc1 | > 512 µg/mL | > 512 µg/mL | 32 µg/mL (≈ 60.3 µM) | > 512 µg/mL | > 512 µg/mL | > 512 µg/mL | > 512 µg/mL | > 512 µg/mL | > 512 µg/mL | 32 µg/mL (≈ 60.3 µM) | > 512 µg/mL | > 512 µg/mL
11 | CCCCCCCCCCCCn1c(=O)c(F)cn(Cc2nc3ccccc3n2CCCCCCCCCCCC)c1=O | > 512 µg/mL | 512 µg/mL (≈ 858 µM) | 512 µg/mL (≈ 858 µM) | > 512 µg/mL | 256 µg/mL (≈ 429 µM) | 256 µg/mL (≈ 429 µM) | 512 µg/mL (≈ 858 µM) | > 512 µg/mL | 32 µg/mL (≈ 53.6 µM) | 512 µg/mL (≈ 858 µM) | 512 µg/mL (≈ 858 µM) | 512 µg/mL (≈ 858 µM)
